Results as given in patent US10987408B2, “Compositions and methods for modulating toll-like receptor 2 activation” (THE CLEVELAND CLINIC FOUNDATION, priority 2010, dated 2021).

Key:
Assay type in all cases: cell-based
[1] = test system: HUVEC; experiment: HUVEC tube formation assay
Procedure: (§1) HUVEC or MLEC cells were seeded on Matrigel-coated plates (BD Bioscience). Medium was supplemented with VEGF or protein adducts as indicated, and cells were further incubated at 37° C. for 8 h. Tube formation was observed using a phase contrast inverted microscope, and photographs were taken from each well. The data were quantified by measuring the length of tubes with ImagePro software.

[2] = test system: mouse aortic endothelial cells (MAEC); experiment: Mouse aortic ring assay
Procedure: The mouse aortic ring assay was performed as previously described (Mahabeleshwar, G. H. et al., Methods Mol Med. 129:197-208, 2006).

[3] = test system: HUVEC; experiment: Cell adhesion assay
Procedure: We performed cell adhesion assays as described elsewhere (Byzova, T. V. et al., J Cell Biol. 143(7):2081-2092, 1998). Briefly, 10^4 HUVEC or MLEC cells were added to ligand coated wells of a 96-well plate and incubated for 1 h in the presence of CEP-adduct or VEGF as indicated. The cells were washed with and fixed with 4% paraformaldehyde in PBS. Thereafter cells were contrasted by hematoxylin staining and photographs were taken.

[4] = test system: Mouse Lung Microvascular EC (MLEC); experiment: MLEC tube formation assay; conditions: TLR2^−/− EC
Procedure: Mouse lungs were excised, minced, and digested using a collagenase-dispase reagent (Roche Diagnostic). Digests were strained and the resulting cell suspension was plated on flasks coated with 1 mg/ml fibronectin. Thereafter, endothelial cells were isolated and characterized as described previously (Mahabeleshwar, G. H. et al., Methods Mol Med. 129:197-208, 2006).
as §1

Substance	pro-angiogenic effect, tube formation [1]	pro-angiogenic effect, aortic ring sprouting ([2]; wild type / TLR2^+/+ mice)	EC adhesion stimulation [3]	EC response, tube formation [4]	EC sprouting, aortic ring ([2]; MyD88^−/− cells)	EC response, aortic ring sprouting ([2]; TLR2^−/− mice)
Pam3CSK4	as effective a stimulator as CEP or VEGF	induced robust sprouting	as effective a stimulator as CEP or VEGF	–	–	–
VEGF	–	–	–	not affected by the lack of TLR2	not affected by the lack of MyD88	not affected by the lack of TLR2
